Test results from patent publication US9062059B2, “Pyrimidine PDE10 inhibitors” (Merck Sharp & Dohme Corp., priority 2011, dated 2015).
pKi: −log10 of the molar value.

Biological target: human PDE10A2 (Homo sapiens (Human), UniProt Q9Y233)
Assay: PDE10 fluorescence polarization (IMAP FP) inhibition assay
Format: biochemical
Details: read-out: PDE10A Ki
Description: The activity of the compounds in accordance with the present invention as PDE10 inhibitors may be readily determined without undue experimentation using a fluorescence polarization (FP) methodology that is well known in the art (Huang, W., et al., J. Biomol Screen, 2002, 7: 215).
In a typical experiment the PDE10 inhibitory activity of the compounds of the present invention was determined in accordance with the following experimental method. PDE10A2 was amplified from human fetal brain cDNA (Clontech, Mountain View, Calif.) using a forward primer corresponding to nucleotides 56-77 of human PDE10A2 (Accession No. AF127480, Genbank Identifier 4894716), containing a Kozak consensus sequence, and a reverse primer corresponding to nucleotides 2406-2413 of human PDE10A2 (Accession No. AF127480, Genbank Identifier 4894716). Amplification with Easy-A polymerase (Stratagene, La Jolla, Calif.) was 95° C. for 2 minutes followed by thirty three cycles of 95° C. for 40 seconds, 55° C. for 30 seconds, and 72° C. for 2 minutes 48 seconds. Final extension was 72° C. for 7 minutes. The PCR product was TA cloned into pcDNA3.2-TOPO (Invitrogen, Carlsbad, Calif.) according to standard protocol. AD293 cells with 70-80% confluency were transiently transfected with human PDE10A2/pcDNA3.2-TOPO using Lipofectamine 2000 according to manufacturer specifications (Invitrogen, Carlsbad, Calif.). Cells were harvested 48 hours post-transfection and lysed by sonication (setting 3, 10×5 sec pulses) in a buffer containing 20 mM HEPES, 1 mM EDTA and protease inhibitor cocktail (Roche). Lysate was collected by centrifugation at 75,000×g for 20 minutes. Supernatant containing the cytoplasmic fraction was used for evaluation of PDE10A2 activity. The fluorescence polarization assay for cyclic nucleotide phosphodiesterases was performed using an IMAP® FP kit supplied by Molecular Devices, Sunnyvale, Calif. (product # R8139). IMAP® technology has been applied previously to phosphodiesterase assays (Huang, W., et al., J. Biomol Screen, 2002, 7: 215). Assays were performed at room temperature in 384-well microtiter plates with an incubation volume of 20.2 μL. Solutions of test compounds were prepared in DMSO and serially diluted with DMSO to yield 8 μL of each of 10 solutions differing by 3-fold in concentration, at 32 serial dilutions per plate. 100% inhibition is determined using a known PDE10 inhibitor, which can be any compound that is present at 5,000 times its Ki value in the assay described as follows, such as papaverine (see Siuciak, et al. Neuropharmacology (2006) 51:386-396; Becker, et al. Behav Brain Res (2008) 186(2):155-60; Threlfell, et al., J Pharmacol Exp Ther (2009) 328(3):785-795), 2-{4-[pyridin-4-yl-1-(2,2,2-trifluoroethyl)-1H-pyrazol-3-yl]phenoxymethyl}quinoline succinic acid or 2-[4-(1-methyl-4-pyridin-4-yl-1H-pyrazol-3-yl)-phenoxymethyl]quinoline succinic acid (see Schmidt, et al. J Pharmacol Exp Ther (2008) 325:681-690; Threlfell, et al., J Pharmacol Exp Ther (2009) 328(3): 785-795). 0% of inhibition is determined by using DMSO (1% final concentrations).
A Labcyte Echo 555 (Labcyte, Sunnyvale, Calif.) is used to dispense 200 nL from each well of the titration plate to the 384 well assay plate. A solution of enzyme (1/1600 dilution from aliquots; sufficient to produce 20% substrate conversion) and a separate solution of FAM-labeled cAMP PDE from Molecular Devices (product # R7506), at a final concentration of 50 nM are made in the assay buffer (10 mM Tris HCl, pH 7.2, 10 mM MgCl2, 0.05% NaN3 0.01% Tween-20, and 1 mM DTT). The enzyme and the substrate are then added to the assay plates in two consecutive additions of 10 μL, and then shaken to mix. The reaction is allowed to proceed at room temperature for 30 minutes. A binding solution is then made from the kit components, comprised of 80% Solution A, 20% Solution B and binding reagent at a volume of 1/600 the total binding solution.

Chain of human PDE10A2 (Q9Y233 267-1055): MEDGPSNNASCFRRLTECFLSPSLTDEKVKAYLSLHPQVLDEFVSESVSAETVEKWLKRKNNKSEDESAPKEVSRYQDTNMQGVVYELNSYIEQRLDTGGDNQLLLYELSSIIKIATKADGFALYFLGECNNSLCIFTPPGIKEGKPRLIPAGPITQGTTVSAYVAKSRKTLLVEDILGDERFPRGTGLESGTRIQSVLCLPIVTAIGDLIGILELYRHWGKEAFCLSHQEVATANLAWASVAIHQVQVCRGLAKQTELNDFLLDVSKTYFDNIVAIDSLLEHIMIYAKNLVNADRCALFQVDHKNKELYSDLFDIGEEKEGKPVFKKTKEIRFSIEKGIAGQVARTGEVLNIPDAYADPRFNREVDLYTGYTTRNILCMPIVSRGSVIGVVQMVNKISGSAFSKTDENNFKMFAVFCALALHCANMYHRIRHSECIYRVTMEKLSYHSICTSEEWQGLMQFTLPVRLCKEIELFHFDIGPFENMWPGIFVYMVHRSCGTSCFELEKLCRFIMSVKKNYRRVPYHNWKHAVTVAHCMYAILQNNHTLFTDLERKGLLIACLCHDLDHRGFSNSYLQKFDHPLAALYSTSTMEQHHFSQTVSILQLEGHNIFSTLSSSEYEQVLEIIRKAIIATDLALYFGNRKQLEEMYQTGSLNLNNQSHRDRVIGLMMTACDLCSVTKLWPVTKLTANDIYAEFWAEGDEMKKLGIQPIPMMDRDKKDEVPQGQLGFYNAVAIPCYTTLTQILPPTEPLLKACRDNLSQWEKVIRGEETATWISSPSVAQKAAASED

Row | pKi | SMILES
1 | 8.44 | COc1cccnc1[C@H]1C[C@@H]1COc1cc(NCc2cnn(C)c2)nc(C)n1 (stereo in doubt) [Compound 2-14, 6-{[2-(3-methoxypyridin-2-yl)cyclopropyl]methoxy}-2-methyl-N-[(1-methyl-1H-pyrazol-4-yl)methyl]pyrimidin-4-amine]
2 | 8.46 | Cc1nc(NCc2cnn(C)c2)cc(OC[C@H]2C[C@@H]2c2ccc(C(F)F)cn2)n1 (stereo in doubt) [Compound 2-17, 6-({2-[5-(difluoromethyl)pyridin-2-yl]cyclopropyl}methoxy)-2-methyl-N-[(1-methyl-1H-pyrazol-4-yl)methyl]pyrimidin-4-amine]
3 | 9.00 | Cc1nc(NCc2nnc(C)s2)cc(OC[C@H]2C[C@@H]2c2ccc(-c3cccnc3)cn2)n1 (stereo in doubt) [Compound 8-8, 6-{[2-(3,3′-bipyridin-6-yl)cyclopropyl]methoxy}-2-methyl-N-[(5-methyl-1,3,4-thiadiazol-2-yl)methyl] pyrimidin-4-amine]
4 | 10.10 | Cc1nc(NCc2nnc(C)s2)cc(OC[C@H]2C[C@@H]2c2ccc(C3CC3)cn2)n1 (stereo in doubt) [Compound 9-2, 6-{[2-(5-cyclopropylpyridin-2-yl)cyclopropyl]methoxy}-2-methyl-N-[(5-methyl-1,3,4-thiadiazol-2-yl)methyl]pyrimidin-4-amine]
5 | 10.52 | Cc1nc(NCc2cnn(C)c2)cc(OCC2CC2c2ccccn2)n1 (stereo not shown) [Compound 1-2, 2-methyl-N-[(1-methyl-1H-pyrazol-4-yl)methyl]-6-[(2-pyridin-2-ylcyclopropyl)methoxy]pyrimidin-4-amine]
6 | 9.22 | Cc1cc(CNc2cc(OC[C@H]3C[C@@H]3c3ccc4ccccc4n3)nc(C)n2)n(C)n1 [Compound 2-4, S,S-N-[(1,3-dimethyl-1H-pyrazol-5-yl)methyl]-2-methyl-6-[(2-quinolin-2-ylcyclopropyl)methoxy] pyrimidin-4-amine]
7 | 10.70 | Cc1nc(NCc2nnc(C)s2)cc(OC[C@H]2C[C@@H]2c2ccc3ncccc3n2)n1 [Compound 2-27, S,S-2-methyl-N-[(5-methyl-1,3,4-thiadiazol-2-yl)methyl]-6-{[2-(1,5-naphthyridin-2-yl)cyclopropyl]methoxy} pyrimidin-4-amine]
8 | 8.42 | Cc1nc(NCc2nnc(C3CC3)s2)cc(OC[C@H]2C[C@@H]2c2ccccn2)n1 [Compound 2-37, S,S-N-[(5-cyclopropyl-1,3,4-thiadiazol-2-yl)methyl]-2-methyl-6-[(2-pyridin-2-ylcyclopropyl)methoxy] pyrimidin-4-amine]
9 | 7.38 | Cc1nc(NCc2sc(C)nc2C)c(C)c(OC[C@H]2C[C@@H]2c2ccccn2)n1 [Compound 2-47, S,S-N-[(2,4-dimethyl-1,3-thiazol-5-yl)methyl]-2,5-dimethyl-6-[(2-pyridin-2-ylcyclopropyl)methoxy] pyrimidin-4-amine]
10 | 10.30 | COc1ccc([C@H]2C[C@@H]2COc2cc(NCc3nnc(C)s3)nc(N)n2)nc1 [Compound 2-53, S,S-6-{[(1S,2S)-2-(5-methoxypyridin-2-yl)cyclopropyl]methoxy}-N-4-[(5-methyl-1,3,4-thiadiazol-2-yl)methyl]pyrimidine-2,4-diamine]
11 | 8.41 | Cc1ccc([C@H]2C[C@@H]2COc2nc(C)nc(NCc3nnc(C)s3)c2Cl)nc1 [Compound 2-58, S,S-5-chloro-2-methyl-6-{[(1S,2S)-2-(5-methylpyridin-2-yl)cyclopropyl]methoxy}-N-[(5-methyl-1,3,4-thiadiazol-2-yl)methyl]pyrimidin-4-amine]
12 | 8.96 | Cc1nnc(CNc2cc(OC[C@H]3C[C@@H]3c3ccccn3)nc(CF)n2)s1 [Compound 3-8, S,S-2-(fluoromethyl)-N-[(5-methyl-1,3,4-thiadiazol-2-yl)methyl]-6-[(2-pyridin-2-ylcyclopropyl)methoxy] pyrimidin-4-amine]
13 | 8.80 | Cc1nc(C)c(CNc2cc(OC[C@H]3C[C@@H]3c3ccccn3)nc(C3CC3)n2)s1 [Compound 3-11, S,S-2-cyclopropyl-N-[(2,4-dimethyl-1,3-thiazol-5-yl)methyl]-6-[(2-pyridin-2-ylcyclopropyl)methoxy] pyrimidin-4-amine]
14 | 9.30 | COc1ccc([C@H]2C[C@@H]2COc2nc(N)nc(NCc3nnc(C)s3)c2F)nc1 [Compound 3-13, 5-fluoro-6-{[(1S,2S)-2-(5-methoxypyridin-2-yl)cyclopropyl]methoxy}-N-4-[(5-methyl-1,3,4-thiadiazol-2-yl)methyl]pyrimidine-2,4-diamine]
15 | 8.44 | Cc1nnc(CNc2nc(N)nc(OC[C@H]3C[C@@H]3c3ccc(Cl)cn3)c2F)s1 [Compound 3-19, 6-{[(1S,2S)-2-(5-chloropyridin-2-yl)cyclopropyl]methoxy}-5-fluoro-N-4-[(5-methyl-1,3,4-thiadiazol-2-yl)methyl]pyrimidine-2,4-diamine]
16 | 10.05 | Cc1nnc(CNc2nc(N)nc(OC[C@H]3C[C@@H]3c3ccc4c(n3)CCC4)c2F)s1 [Compound 3-25, S,S-6-(((1S,2S)-2-(6,7-dihydro-5H-cyclopenta[b]pyridin-2-yl)cyclopropyl)methoxy)-5-fluoro-N4-((5-methyl-1,3,4-thiadiazol-2-yl)methyl)pyrimidine-2,4-diamine]
17 | 8.96 | Cc1nc(NCc2cc(C)on2)cc(OCC2CC2c2ccccn2)n1 (stereo not shown) [Compound 12-2, 2-methyl-N-((5-methylisoxazol-3-yl)methyl)-6-((2-(pyridin-2-yl)cyclopropyl)methoxy)-pyrimidin-4-amine]
18 | 8.28 | Cc1nc(NCc2ccncc2C)cc(OCC2CC2c2ccccn2)n1 (stereo not shown) [Compound 14-3, 2-methyl-N-((3-methylpyridin-4-yl)methyl)-6-((2-(pyridin-2-yl)cyclopropyl)methoxy)pyrimidin-4-amine]
19 | 8.80 | Cc1ccc([C@H]2C[C@@H]2COc2nc(N)nc(NCc3nnc(C)s3)c2C#N)nc1 [Compound 16-4, 2-amino-4-{[(1S,2S)-2-(5-methylpyridin-2-yl)cyclopropyl]methoxy}-6-{[(5-methyl-1,3,4-thiadiazol-2-yl)methyl]amino}pyrimidine-5-carbonitrile]
